The record followed here is ChEMBL document CHEMBL1201862, “PubChem BioAssay data set” (2004).

Test systems include SN12C; RPMI-8226; HOP-62; EKVX; SF-295; NCI-H522; OVCAR-3; NCI-H226; UACC-62; OVCAR-8; M14; SW-620; Malme-3M; SK-MEL-2; U-251; A549; NCI-H460; SNB-75; LOX IMVI; HCC 2998.
Common to all, as to test: NCI anticancer screen, dose series, 48 h

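Dose response: 5 concentrations. Exposure: 48 h. Format: 96-well plates. Endpoint: linear interpolation; highest concentration if not reached. The concentration for 50% growth inhibition is given as GI50.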 The source made the active and inactive calls. Rule as the data show it: active = GI50 up to about 1.1 µM and inactive = higher. A value given as a limit tells only on which side of the number the result lay.

On to `O=C1c2sc(-c3ccc(F)cc3)cc2-n2cccc21`, for which the GI50 in the assay on SN12C was 19.4 µM (inactive); in the assay on RPMI-8226 it was 23.3 µM (inactive); in the assay on HOP-62 it was 17 µM (inactive); with EKVX, 1.89 µM (inactive); with SF-295, 25.1 µM (inactive); in the assay with NCI-H522, 34.8 µM (inactive). Besides, the GI50 with OVCAR-3 is 32.8 µM (inactive); in the assay with NCI-H226, 24.4 µM (inactive); in the assay with UACC-62 it was 28.3 µM (inactive); with OVCAR-8, 27.6 µM (inactive); with M14, 38.1 µM (inactive); in the assay on SW-620, 47.6 µM (inactive). Moreover, the GI50 is 77.3 µM (inactive) in the assay with Malme-3M; > 100 µM (inactive) in the assay with SK-MEL-2; 16.4 µM (inactive) in the assay on U-251; 26 µM (inactive) in the assay on A549; 24.9 µM (inactive) in the assay with NCI-H460; 18.4 µM (inactive) in the assay on SNB-75. Moreover, the results for the GI50 in the assay on LOX IMVI and in the assay with HCC 2998 were 32.1 µM (inactive) and 29.2 µM (inactive), respectively.

Consider `C[C@]12CC[C@H](O[C@@H]3O[C@H](CO[C@@H]4O[C@H](CO)[C@@H](O)[C@H](O)[C@H]4O)[C@@H](O)[C@H](O)[C@H]3O)C[C@@H]1CC[C@@H]1[C@@H]2CC[C@]2(C)[C@@H](C3=CC(=O)OC3)CC[C@]12O` [UZARIN], for which the GI50 in the assay on SN12C is 20.1 µM (inactive); in the assay on RPMI-8226 it was 43.4 µM (inactive); with HOP-62 it was 13.7 µM (inactive); in the assay with EKVX, 17.7 µM (inactive); with SF-295 it was 17.3 µM (inactive); in the assay on NCI-H522, 7.91 µM (inactive). Also, the GI50 with OVCAR-3 was 23.3 µM (inactive); in the assay on NCI-H226 it was 42.2 µM (inactive); in the assay on UACC-62, 33.7 µM (inactive); in the assay with OVCAR-8, 31.8 µM (inactive); in the assay with M14, 24.8 µM (inactive); in the assay with SW-620, 31.6 µM (inactive). The GI50 was 17.5 µM (inactive) with Malme-3M; 36.4 µM (inactive) in the assay with SK-MEL-2; 39.7 µM (inactive) in the assay with U-251; 5.33 µM (inactive) with A549; 7.29 µM (inactive) in the assay on NCI-H460; 28.4 µM (inactive) in the assay on SNB-75. Further, the values for the GI50 in the assay on LOX IMVI and in the assay on HCC 2998 were 22.1 µM (inactive) and 21.9 µM (inactive), respectively.

In the case of `COC1=C(C(c2cc(OC)c(OC)c(OC)c2)c2cc3c(cc2OC)OCO3)C(=O)OC1` (stereo not given), the GI50 is 34.8 µM (inactive) in the assay with SN12C; 46 µM (inactive) in the assay with RPMI-8226; 24.8 µM (inactive) in the assay on HOP-62; 28.4 µM (inactive) in the assay on EKVX; 15.1 µM (inactive) in the assay on SF-295; 7.8 µM (inactive) in the assay on NCI-H522. In addition, the GI50 was 22.3 µM (inactive) with OVCAR-3; 28.4 µM (inactive) in the assay on NCI-H226; 10.6 µM (inactive) in the assay with UACC-62; 27 µM (inactive) in the assay with OVCAR-8; 17.9 µM (inactive) in the assay with M14; 27 µM (inactive) in the assay with SW-620. For the same compound, the GI50 in the assay on Malme-3M was 31.7 µM (inactive); in the assay with SK-MEL-2, 45.2 µM (inactive); in the assay on U-251, 33.3 µM (inactive); in the assay with A549, 20.1 µM (inactive); with NCI-H460, 29.2 µM (inactive); with SNB-75, > 37.9 µM (inactive). The values for the GI50 with LOX IMVI and in the assay on HCC 2998 were 10 µM (inactive) and 44.1 µM (inactive), respectively.

For `COc1cc2c(cc1O)CC[C@@H]1C2CC[C@@]2(C)C1CC[C@@H]2O` (stereo not given in full), the GI50 in the assay with SN12C was 6.85 µM (inactive); with RPMI-8226, 0.57 µM (active); with HOP-62, 2.28 µM (inactive); with EKVX, 6.17 µM (inactive); in the assay with SF-295, 3.16 µM (inactive); in the assay with NCI-H522, 0.482 µM (active). The GI50 in the assay on OVCAR-3 was 0.634 µM (active); in the assay on NCI-H226 it was 48.5 µM (inactive); in the assay on UACC-62, 1.21 µM (inactive); in the assay on OVCAR-8, 2 µM (inactive); in the assay on M14 it was 0.91 µM (active); in the assay on SW-620, 0.635 µM (active). Besides, the GI50 with Malme-3M was 0.771 µM (active); in the assay with SK-MEL-2, 1.32 µM (inactive); with U-251 it was 1.16 µM (inactive); with A549, 4.48 µM (inactive); in the assay on NCI-H460, 1.96 µM (inactive); with SNB-75, 1.07 µM (active). Besides, the GI50 with LOX IMVI was 2.89 µM (inactive); with HCC 2998 it was 9.62 µM (inactive).
